Values of other authors in US20170022153A1, “FUMARATE COMPOUNDS, PHARMACEUTICAL COMPOSITIONS THEREOF, AND METHODS OF USE” (priority 2015, published 2017).

aqueous solubility: poor
Structure (SMILES): COC(=O)/C=C/C(=O)OC [DMF, dimethylfumarate]
